Data: the supplement of paper PMC10307832

The cell lines below were run with COCC[n+]1c2c(n(Cc3cnccn3)c1C)C(=O)c1ccccc1C2=O [YM155] + COc1cc2c(Oc3ccc(NC(=O)C4(C(=O)Nc5ccc(F)cc5)CC4)cc3F)ccnc2cc1OCCCN1CCOCC1 [Foretinib] (partner 0.25 µM) (assay: relative viability (nuclei count vs DMSO), 5 days (fraction); higher = more cells survive). Details: first compound 0.06325 µM.
Outline: (§1)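 For relative viability, nuclei counts in treated wells were divided by those in vehicle wells. Lung cancer cell lines had been pin-tool dosed in 1536-well plates the day after seeding and cultured for 5 days, then fixed and stained in one step (final 0.05% Triton X-100, 1% formaldehyde, 1 ug/ml Hoechst) and imaged at 4×. Doses were one drug alone or a fixed anchor-drug dose plus five library-drug doses (not always all listed) in √10 steps, and values are duplicate-plate medians.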
NCI-H460 was tested, and the relative viability was 0.919.
In the case of BEN, the relative viability is reported as 0.645.
PC-3 [JPC-3] was tested, and the relative viability was 1.02.
With LC-2-ad the relative viability was 0.666.

The cell lines below were run with COCC[n+]1c2c(n(Cc3cnccn3)c1C)C(=O)c1ccccc1C2=O [YM155] + Nc1nc2[nH]cc(CCc3ccc(C(=O)N[C@@H](CCC(=O)O)C(=O)O)cc3)c2c(=O)[nH]1 [Pemetrexed] (partner 0.2 µM) in the same assay as above. Details: first compound 0.002 µM.
Outline: as §1
With LOU-NH91 the relative viability was 0.361.
NCI-H596 gave a relative viability of 0.429.
Work on NCI-H1666 yielded a relative viability of 0.837.
With NCI-H838 the relative viability was 0.276.
NCI-H322M was tested, and the relative viability was 0.504.
With NCI-H1793 the relative viability was 0.708.
Work on NCI-H441 yielded a relative viability of 0.249.
SW 1573 gave a relative viability of 0.867.
For 201T, the relative viability was 0.31.
Work on NCI-H1755 yielded a relative viability of 0.647.
Work on NCI-H1650 yielded a relative viability of 0.35.
ChaGo-K-1 gave a relative viability of 0.261.
COR-L23 gave a relative viability of 0.194.
NCI-H2085 showed a relative viability of 0.705.
In the case of NCI-H460, the relative viability is reported as 0.072.
With BEN the relative viability was 0.63.
For PC-3 [JPC-3], the relative viability was 0.978.
LC-2-ad was tested, and the relative viability was 0.287.

Same assay, conditions: first compound 0.006325 µM
Work on LOU-NH91 yielded a relative viability of 0.356.
With NCI-H596 the relative viability was 0.485.
For NCI-H1666, the relative viability was 0.881.
With NCI-H23 the relative viability was 0.655.
NCI-H838 was tested, and the relative viability was 0.232.
For NCI-H322M, the relative viability was 0.613.
With NCI-H1793 the relative viability was 0.896.
For NCI-H441, the relative viability was 0.267.
SW 1573 was tested, and the relative viability was 0.835.
With 201T the relative viability was 0.406.
In the case of NCI-H1755, the relative viability is reported as 0.42.
Work on NCI-H1650 yielded a relative viability of 0.348.
ChaGo-K-1 was tested, and the relative viability was 0.243.
In the case of COR-L23, the relative viability is reported as 0.198.
NCI-H2085 showed a relative viability of 0.884.
NCI-H460 gave a relative viability of 0.0667.
BEN gave a relative viability of 0.839.
For PC-3 [JPC-3], the relative viability was 1.22.
LC-2-ad showed a relative viability of 0.248.

Same assay, conditions: first compound 0.02 µM
LOU-NH91 showed a relative viability of 0.346.
For NCI-H596, the relative viability was 0.532.
NCI-H1666 was tested, and the relative viability was 0.854.
Work on NCI-H23 yielded a relative viability of 0.646.
In the case of NCI-H838, the relative viability is reported as 0.225.
NCI-H322M showed a relative viability of 0.576.
NCI-H1793 gave a relative viability of 1.03.
NCI-H441 showed a relative viability of 0.293.
Cell Line SW 1573 has a relative viability of 0.362.
201T was tested, and the relative viability was 0.298.
Cell Line NCI-H1755 has a relative viability of 0.359.
For NCI-H1650, the relative viability was 0.321.
For ChaGo-K-1, the relative viability was 0.26.
With COR-L23 the relative viability was 0.18.
With NCI-H2085 the relative viability was 0.911.
NCI-H460 showed a relative viability of 0.0671.
BEN was tested, and the relative viability was 0.934.
In the case of PC-3 [JPC-3], the relative viability is reported as 1.07.
LC-2-ad gave a relative viability of 0.28.

Same assay, conditions: first compound 0.06325 µM
LOU-NH91 was tested, and the relative viability was 0.343.
NCI-H596 was tested, and the relative viability was 0.499.
Work on NCI-H1666 yielded a relative viability of 0.868.
NCI-H23 showed a relative viability of 0.549.
For NCI-H838, the relative viability was 0.216.
Cell Line NCI-H322M has a relative viability of 0.622.
Work on NCI-H1793 yielded a relative viability of 0.954.
For NCI-H441, the relative viability was 0.198.
With SW 1573 the relative viability was 0.0865.
For 201T, the relative viability was 0.28.
NCI-H1755 was tested, and the relative viability was 0.434.
For NCI-H1650, the relative viability was 0.249.
Cell Line ChaGo-K-1 has a relative viability of 0.254.
With COR-L23 the relative viability was 0.136.
With NCI-H2085 the relative viability was 0.869.
NCI-H460 was tested, and the relative viability was 0.0598.
BEN was tested, and the relative viability was 0.908.
For PC-3 [JPC-3], the relative viability was 0.967.
For LC-2-ad, the relative viability was 0.262.
